In the NIST ThermoML archive (doi:10.1016/j.jct.2008.12.002):

Test: xn = mol fraction of the nth substance listed
Conditions: 101 kPa, Liquid, Vibrating tube method

CCCCCCCCOS(=O)(=O)[O-].CCCCn1cc[n+](C)c1 [1-butyl-3-methylimidazolium octyl sulfate] + OCCO
mass density [kg/m3]
Conditions	298.15 K	308.15 K	318.15 K
x1 = 0.0003	1109.9	1102.8	1095.5
x1 = 0.0008	1109.8	1102.6	1095.3
x1 = 0.0012	1109.6	1102.5	1095.2
x1 = 0.0017	1109.5	1102.4	1095.1
x1 = 0.002	1109.4	1102.3	1095
x1 = 0.0038	1108.8	1101.7	1094.4
x1 = 0.007	1107.8	1100.7	1093.4
x1 = 0.0119	1106.3	1099.2	1092
x1 = 0.0174	1104.7	1097.7	1090.5
x1 = 0.0258	1102.5	1095.5	1088.2
x1 = 0.0508	1096.8	1089.8	1082.6
x1 = 0.19	1079.9	1072.9	1065.9
x1 = 0.301	1074.2	1067.3	1060.4
x1 = 0.3712	1072.2	1065.3	1058.4
x1 = 0.4591	1070.5	1063.6	1056.8
x1 = 0.5435	1069.4	1062.7	1055.9
x1 = 0.6225	1068.7	1062.1	1055.4
x1 = 0.7366	1068.2	1061.5	1054.9
x1 = 0.8073	1067.9	1061.3	1054.8
x1 = 0.9007	1067.7	1061.2	1054.6
x1 = 1	1067.6	1061	1054.5

CCCCn1cc[n+](C)c1.F[B-](F)(F)F [1-butyl-3-methylimidazolium tetrafluoroborate] + OCCO
mass density [kg/m3]
Conditions	298.15 K	308.15 K	318.15 K
x1 = 0.0266	1116.7	1109.4	1102.2
x1 = 0.0766	1127.3	1119.9	1112.5
x1 = 0.1017	1131.9	1124.4	1116.9
x1 = 0.1678	1142.4	1134.7	1126.9
x1 = 0.2425	1152.1	1144.1	1136.2
x1 = 0.3825	1166	1157.8	1149.7
x1 = 0.4389	1170.5	1162.4	1154.3
x1 = 0.5207	1176.4	1168.3	1160.3
x1 = 0.6049	1181.7	1173.7	1165.8
x1 = 0.7196	1188.1	1180.4	1172.7
x1 = 0.8106	1192.7	1185.1	1177.6
x1 = 0.8978	1196.8	1189.4	1182.1
x1 = 1	1201.2	1194	1186.9

CCCCCCCC[n+]1ccn(C)c1.F[B-](F)(F)F [1-methyl-3-octylimidazolium tetrafluoroborate] + OCCO
mass density [kg/m3]
Conditions	298.15 K	308.15 K	318.15 K
x1 = 0.0027	1109.9	1102.8	1095.7
x1 = 0.0046	1109.7	1102.7	1095.4
x1 = 0.0081	1109.5	1102.4	1095.2
x1 = 0.0151	1109	1101.9	1094.6
x1 = 0.0316	1108	1100.8	1093.4
x1 = 0.0614	1106.4	1099.2	1091.7
x1 = 0.083	1105.4	1098	1090.6
x1 = 0.1341	1103.5	1096	1088.6
x1 = 0.2026	1101.7	1094	1086.8
x1 = 0.273	1100.4	1092.7	1085.3
x1 = 0.4125	1099.2	1091.5	1084.2
x1 = 0.5198	1099	1091.3	1084.1
x1 = 0.6306	1099.3	1091.6	1084.5
x1 = 0.7919	1100.3	1092.6	1085.5
x1 = 0.9583	1101.6	1094	1087.1
x1 = 1	1101.9	1094.32	1087.5
